According to patent US20190274334A1 (MARS, INCORPORATED, priority 2016, published 2019):
Like-named read-outs stand apart in the source and are kept apart here. *1 amine or outer side, *2 acyl side, *3 side chain or, on linkers, in order; H or OH if unused. Where a SMILES comes first, the peptide text is derived from it. [ ]: non-standard residue; d: D form. γGlu = O=C(O)[C@H](CCC(=O)[*:2])N[*:1]; Abu = CC[C@H](N)C(=O)O

Target: feline CaSR (f:CaSR) (Felis catus, UniProt A0ABI7YY68)
Assay: cell-based
Assay type: cell-based
[1] = PAM mode, CaCl2 injected at EC20, read-out: EC50 (PAM)
[2] = double-injection protocol, agonist mode and PAM mode
[3] = agonist mode, read-out: EC50 (Agonist)

Sequence of feline CaSR (f:CaSR) (A0ABI7YY68 entry or part of it): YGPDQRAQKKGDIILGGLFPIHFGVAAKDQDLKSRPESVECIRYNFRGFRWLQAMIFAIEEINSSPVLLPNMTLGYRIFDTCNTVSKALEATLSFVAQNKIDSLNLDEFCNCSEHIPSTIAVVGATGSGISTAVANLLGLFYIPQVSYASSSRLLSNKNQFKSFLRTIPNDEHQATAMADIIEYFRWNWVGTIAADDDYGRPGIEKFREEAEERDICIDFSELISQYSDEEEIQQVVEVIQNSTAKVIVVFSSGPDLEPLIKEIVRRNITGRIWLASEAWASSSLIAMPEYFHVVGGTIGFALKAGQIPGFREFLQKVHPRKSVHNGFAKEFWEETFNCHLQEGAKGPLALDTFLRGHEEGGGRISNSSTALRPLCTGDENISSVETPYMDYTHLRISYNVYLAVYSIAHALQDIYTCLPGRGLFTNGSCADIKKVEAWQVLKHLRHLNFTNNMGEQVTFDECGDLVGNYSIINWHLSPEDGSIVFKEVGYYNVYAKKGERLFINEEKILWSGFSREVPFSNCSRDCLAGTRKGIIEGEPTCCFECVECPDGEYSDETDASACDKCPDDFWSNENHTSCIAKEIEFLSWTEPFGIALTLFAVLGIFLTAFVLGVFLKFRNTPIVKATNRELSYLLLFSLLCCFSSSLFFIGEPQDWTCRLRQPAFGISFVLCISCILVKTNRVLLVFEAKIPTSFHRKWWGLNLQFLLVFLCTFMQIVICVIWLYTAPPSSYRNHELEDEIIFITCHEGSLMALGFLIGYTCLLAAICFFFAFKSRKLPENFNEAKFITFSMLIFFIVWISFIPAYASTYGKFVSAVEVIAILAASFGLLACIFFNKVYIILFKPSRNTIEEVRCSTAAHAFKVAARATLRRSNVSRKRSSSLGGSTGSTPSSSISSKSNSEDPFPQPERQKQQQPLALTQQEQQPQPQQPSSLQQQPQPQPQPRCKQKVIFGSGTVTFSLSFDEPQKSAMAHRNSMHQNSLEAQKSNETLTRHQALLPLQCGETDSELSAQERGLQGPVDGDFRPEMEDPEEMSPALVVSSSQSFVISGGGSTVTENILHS

Molecule | Activity Type [2] | other results
COc1ccc(C(CCNC(C)c2ccc(Cl)cc2)C(C)C)cc1 (stereo not shown) [N-(1-(4-chlorophenyl)ethyl)-3-(4-methoxyphenyl)-4-methylpentan-1-amine] | PAM | EC50 [1]: 1.44 µM
[Pr] [Praseodymium] | Agonist | EC50 [3]: 398 µM
Cc1ccc(C(C)(O)c2nc3ccccc3s2)c(C)c1 (stereo not shown) [1-(benzo[d]thiazol-2-yl)-1-(2,4-dimethylphenyl)ethanol] | PAM | EC50 [1]: 0.0511 µM
OCC(CNC1CCCOc2cc(Cl)ccc21)Cc1ccccn1 (stereo not shown) [3-((8-chloro-2,3,4,5-tetrahydrobenzo[b]oxepin-5-yl)amino)-2-(pyridin-2-ylmethyl)propan-1-ol] | PAM | 
CC(NCCC(Cc1ccccc1)c1ccco1)c1ccccc1 (stereo not shown) [3-(furan-2-yl)-4-phenyl-N-(1-phenylethyl)butan-1-amine] | PAM | EC50 [1]: 0.673 µM
N[C@@H](CCC(=O)N[C@@H](CSCCO)C(=O)NCC(=O)O)C(=O)O [S-(2-Hydroxyethyl)glutathione] | Agonist | 
CC(NCCC(c1ccccc1)c1ccco1)c1ccccc1 (stereo not shown) [3-(furan-2-yl)-3-phenyl-N-(1-phenylethyl)propan-1-amine] | PAM | EC50 [1]: 0.458 µM
CC[C@H](NC(=O)CC[C@H](N)C(=O)O)C(=O)O | Agonist | 
N[C@@H](CCC(=O)N[C@@H](Cc1ccccc1)C(=O)O)C(=O)O [γ-Glu-Phe] | Agonist | EC50 [3]: 2320 µM
N[C@@H](CCCC(=O)O)C(=O)O [L-2-Aminoadipic acid] | Agonist | 
COc1ccc(C(CCNC(C)c2ccc(Cl)cc2)CCC(C)C)cc1 (stereo not shown) [N-(1-(4-chlorophenyl)ethyl)-3-(4-methoxyphenyl)-6-methylheptan-1-amine] | PAM | EC50 [1]: 115 µM
NC(=O)CC[C@H](NC(=O)CC[C@H](N)C(=O)O)C(=O)O [H-Glu(Gln-OH)—OH] | Agonist | 
O=P(O)(O)CP(=O)(O)O [Methylenediphosphonic acid] | Agonist | EC50 [3]: 1290 µM
C[C@H](NC(=O)CC[C@H](N)C(=O)O)C(=O)O [γ-Glu-Ala, L-gamma-Glutamyl-L-alanine] | Agonist | 
NC(CC(C(=O)O)C(=O)O)C(=O)O (racemic) [γ-Carboxy-DL-glutamic acid] |  | Activity Type: Agonist
N[C@@H](CCC(=O)N[C@@H](CS)C(=O)O)C(=O)O [H-Glu(Cys-OH)—OH] |  | Activity Type: Agonist
NC[C@@H]1O[C@H](O[C@H]2[C@@H](O)[C@H](O[C@@H]3[C@@H](O)[C@H](N)C[C@H](N)[C@H]3O[C@H]3O[C@H](CO)[C@@H](O)[C@H](O)[C@H]3N)O[C@@H]2CO)[C@H](N)[C@@H](O)[C@@H]1O [Paromomycin, reference compound] | Agonist | 
Poly-L-lysine |  | Activity Type: Agonist
CC[C@H](NC(=O)CC[C@H](N)C(=O)O)C(=O)NCC(=O)O [Ophthalmic Acid] (γGlu-[Abu]-Gly-OH) | Agonist | EC50 [3]: 2660 µM
N[C@@H](CS(=O)(=O)O)C(=O)O [L-Cysteic acid] | Agonist | 
N[C@@H](CC(=O)O)C(=O)O [L-Aspartic acid] |  | Activity Type: Agonist EC50 4.11 mM
CC(C)C[C@H](NC(=O)C[C@H](N)C(=O)O)C(=O)O [H-Asp(Leu-OH)—OH] | Agonist | 
N[C@@H](CCC(=O)N[C@@H](CSCc1c[nH]c2ccccc12)C(=O)NCC(=O)O)C(=O)O [3-Glutathionyl-S-methylindole] | Agonist | 
CC(NCCC(Cc1ccccc1)c1ccco1)c1ccc(Cl)cc1 (stereo not shown) [N-(1-(4-chlorophenyl)ethyl)-3-(furan-2-yl)-4-phenylbutan-1-amine] | PAM | EC50 [1]: 4 µM
N[C@@H](CCS(=O)(=O)O)C(=O)O [L-Homocysteic acid] | Agonist | 

Molecule | Activity Type [2] | other results
N[C@@H](CCC(=O)NCC(=O)O)C(=O)O [H-Glu(Gly-OH)—OH] | Agonist | 
Cc1ccc(C2(CCNC(C)c3ccc(Cl)cc3)CCOC(C)(C)C2)cc1 (stereo not shown) [1-(4-chlorophenyl)-N-(2-(2,2-dimethyl-4-(p-tolyl)tetrahydro-2H-pyran-4-yl)ethyl)ethanamine] | PAM | 
C[C@@H](NCCCc1cccc(C(F)(F)F)c1)c1cccc2ccccc12 [Cinacalcet, reference compound] |  | Activity Type: PAM EC50 0.746 uM
NCCCNCCCCNCCCN [Spermine] |  | Activity Type: Agonist
NC(CC(F)C(=O)O)C(=O)O (racemic) [4-Fluoro-DL-glutamic acid] | Agonist | 
COc1ccccc1C(CCNC(C)c1ccc(Cl)cc1)c1ccc(OC(C)C)cc1 (stereo not shown) [N-(1-(4-chlorophenyl)ethyl)-3-(4-isopropoxyphenyl)-3-(2-methoxyphenyl)propan-1-amine] | PAM | EC50 [1]: 0.714 µM
N[C@@H](CCC(=O)N[C@@H](CS)C(=O)NCC(=O)O)C(=O)O [Glutathione] |  | Activity Type: Agonist EC 50 6.39 mM
N[C@@H](Cc1ccc(OP(=O)(O)O)cc1)C(=O)O [O-phospho-L-tyrosine] | Agonist | 
c1ccc(C2CCN(C3CCCc4ccccc43)C2)cc1 (stereo not shown) [3-phenyl-1-(1,2,3,4-tetrahydronaphthalen-1-yl)pyrrolidine] | PAM | 
Geneticin [reference compound] | Agonist | 
NCCCCNCCCN [Spermidine] | Agonist | 
[Sr+2] [Strontium] | Agonist | 
NC(CCCCC(=O)O)C(=O)O (racemic) [(±)-2-Aminopimelic acid] |  | Activity Type: Agonist
C[C@H](NC(=O)C[C@H](N)C(=O)O)C(=O)O [H-Asp(Ala-OH)—OH] | Agonist | 
CC(C)[C@H](NC(=O)CC[C@H](N)C(=O)O)C(=O)O [γ-Glu-Val] | Agonist | 
Tobramycin [reference compound] | PAM | 
NC[C@@H]1O[C@H](O[C@H]2[C@@H](O)[C@H](O[C@@H]3[C@@H](O)[C@H](N)C[C@H](N)[C@H]3O[C@H]3O[C@H](CN)[C@@H](O)[C@H](O)[C@H]3N)O[C@@H]2CO)[C@H](N)[C@@H](O)[C@@H]1O [Neomycin, reference compound] |  | Activity Type: Agonist EC50 1.87 mM; EC50: 1870 µM
N[C@@H](CP(=O)(O)O)C(=O)O (stereo in doubt) [2-Amino-3-phosphonopropionic acid] | Agonist | 
N[C@@H](C[C@H](O)C(=O)O)C(=O)O [2S,4S-γ-Hydroxy-L-glutamic acid] | Agonist | 
[Mg] [Magnesium] | Agonist | 
Poly-L-ornithine |  | Activity Type: Agonist EC50 0.240 mM; EC50 (read-out: EC50 (Agonist)): 240 µM
CC(=O)N1C=Cc2ccccc2C1CC(=O)NC(C)c1cccc(Br)c1 (stereo not shown) [2-(2-acetyl-1,2-dihydroisoquinolin-1-yl)-N-(1-(3-bromophenyl)ethyl)acetamide] | PAM | EC50 [1]: 12.1 µM
COC(=O)C(NC1CCc2c(F)cccc21)c1cccc(C#N)c1 (stereo not shown) [methyl 2-(3-cyanophenyl)-2-((4-fluoro-2,3-dihydro-1H-inden-1-yl)amino)acetate] | PAM | EC50 [1]: 58.9 µM
N[C@@H](CCC(=O)N[C@@H](Cc1ccc(O)cc1)C(=O)O)C(=O)O [γ-Glu-Tyr] | Agonist | 
